The source of these data is US5468728A, “Use of orally absorbable motilin preparations to enhance motility of digestive tract” (Sanwa Kagaku Kenkyusho Co., Ltd., priority 1991, dated 1995).

The experiment deals with intestinal tracts. The experiment in a line: Contraction of the intestinal tracts in dogs by the balloon method, intravenous and nasal administration. The class given is in vivo. The source says:
L-leucine-13-motilin (A) and L-leucine-13-motilin-homoserin (B) were administrated to dogs through an intravenous route ([…]) by the ballon method to determine their activities on the contraction of the intestinal tracts, and the action of the surface active agent on promoting the absorption of the active substances administrated through a nasal administration was estimated in terms of percentage relative to the activity--100%-- of L-leucine-13-motilin administrated through an intravenous route on the contraction.
L-leucine-13-motilin-homoserine and L-leucine-13-motilin were each dissolved in purified water to prepare an aqueous solution, which was then aseptically poured into a vial in such a way that it contained the active substance in an amount of 1 mg when calculated as polypeptide. Each vial was finally sealed together and freeze-dried. For use, this vial is dissolved in physiological saline for injection.

The mark [1] stands for this setting: Intravenous Administration (2.0 μg/kg/hr).
Setting [2] is: Nasal Administration (100 μg/kg/hr), Control = injection preparation without surface active agent.

For the substance L-leucine-13-motilin [A], the “activity on the contraction of the intestinal tracts, percentage relative to L-leucine-13-motilin intravenous (100%)” value by setting is: under setting [1], 100 ± 0%; under setting [2], “No activity found”.

On to L-leucine-13-motilin-homoserine [B], for which the “activity on the contraction of the intestinal tracts, percentage relative to L-leucine-13-motilin intravenous (100%)” value under setting [1] turned out to be 115 ± 5% and the “activity on the contraction of the intestinal tracts, percentage relative to L-leucine-13-motilin intravenous (100%)” value under setting [2] was not above 30%.
